The values below come from patent publication US20240408071A1, “NOVEL COMBINATION OF SEROTONIN RECEPTOR (5-HTR2B) ANTAGONIST AND AN IMMUNOMODULATOR AND CHEMOTHERAPEUTIC DRUGS FOR INHIBITION OF CANCER” (NATIONAL CENTRE FOR CELL SCIENCE, priority 2021, published 2024).

The subject of one series is 4T1-Luc2 cells. As to the kind of experiment: 4T1-Luc2 breast cancer model, tumor volume. It is filed as in vivo, BALB/c mice. Particulars: RS-127445 2 mg/kg/day + paclitaxel 2 mg/kg/alternate days; 4T1-luc2 model (FIG. 16A). The method, then:
FIG. 7 depicts that antagonizing the 5-HTR2B in mice inhibits breast and colon tumor growth: (A) MC38 colon cancer cells were injected subcutaneously into the right flank of C57BL/6 mice. […] Tumor volumes were measured and plotted. (B) MC38 colon cancer cells were injected subcutaneously into the right flank of C57BL/6 mice. After seven days when tumors became palpable, one group was treated with 5-HTR7 antagonist SB-269970 (n=6 mice; 3 mg/kg/day) or left untreated (n=6 mice). Tumor volume was measured and plotted. (C) After seven days of the setting of tumor growth, one group was treated with a serotonin transporter blocker (SSRI) sertraline hydrochloride (n=6 mice; 15 mg/kg/week) or left untreated (n=6 mice). Tumor volume was measured and plotted. (D) C57BL/6 mice were given subcutaneously injected MC38 cells. After seven days of tumor growth, one group of mice was treated with different doses of 5-HTR2B antagonist SB-215505 (n=6). Tumor volume was measured and plotted. […] Tumor volume was measured and plotted. […] Tumor growth was measured and plotted. […] Tumour volumes were measured and plotted. […] Tumour volumes were measured and plotted. […]
FIG. 16 depicts the effect of the 5-HTR2B antagonist on the FDA-approved chemotherapy drug treatment: (A) BALB/C mice were inoculated with 4T1-Luc2 cells in the mammary fat pad. […] Tumor volume was measured and plotted. […]

Series [1] has as its system tumor-infiltrating immune cells in MC38 tumor. Kind of series: Tumor-infiltrating immune cells in MC38 tumor (flow cytometry / immunohistochemistry). The class given is in vivo, C57BL/6 mice. The method, then:
FIG. 7 depicts that antagonizing the 5-HTR2B in mice inhibits breast and colon tumor growth: (A) MC38 colon cancer cells were injected subcutaneously into the right flank of C57BL/6 mice. […] Tumor volumes were measured and plotted. (B) MC38 colon cancer cells were injected subcutaneously into the right flank of C57BL/6 mice. After seven days when tumors became palpable, one group was treated with 5-HTR7 antagonist SB-269970 (n=6 mice; 3 mg/kg/day) or left untreated (n=6 mice). Tumor volume was measured and plotted. (C) After seven days of the setting of tumor growth, one group was treated with a serotonin transporter blocker (SSRI) sertraline hydrochloride (n=6 mice; 15 mg/kg/week) or left untreated (n=6 mice). Tumor volume was measured and plotted. (D) C57BL/6 mice were given subcutaneously injected MC38 cells. After seven days of tumor growth, one group of mice was treated with different doses of 5-HTR2B antagonist SB-215505 (n=6). Tumor volume was measured and plotted. (E) C57BL/6 mice were given subcutaneously injected MC38 cells. After seven days of the tumor growth, one group of mice was treated with different doses of 5-HTR2B antagonist SB-215505 (n=6), one group treated with 5-HTR2B agonist BW-723C86 (n=6; 4 mg/kg/day). Tumor volume was measured and plotted. (F) MC38 cells were subcutaneously injected into C57BL/6 mice. After seven days when the tumor became palpable in mice, one group of mice was treated with FDA-approved 5-HTR2B antagonist cariprazine (Carispec; Sun pharma) via oral gavage (n=5 mice; dose 5 mg/kg body weight/day) or left untreated (n=5 mice). Tumor growth was measured and plotted. (G) Breast cancer cell lines (4T1-Luc cells) were injected into the mammary fatpad of BALB/c mice. After seven days of the tumor growth setting in mice, one group of mice was treated with 5-HTR2B antagonist SB-215505(n=5 mice) or left untreated (n=5 mice). Tumour volumes were measured and plotted. (H) Mice melanoma (B16F10 cells) were injected subcutaneously in the left flank of C57BL/6J mice. After seven days of the tumor growth setting in mice, one group of mice was treated with 5-HTR2B antagonist SB-215505(n=5 mice) or left untreated (n=5 mice). Tumour volumes were measured and plotted. (I) Statistical analysis of the flow cytometric data showing the differential expression of F4/80^+CD11B^+ macrophages within MC38 tumor following treatment with 5-HTR2B antagonist. (J) Statistical analysis of the flow cytometric data showing the differential expression of F4/80^+CD11B^+ iNOS^+ M1 macrophages within MC38 tumor following treatment 5-HTR2B antagonist. (K) Statistical analysis of the flow cytometric data showing the differential expression of F4/80^+CD1B^+ Arg1^+ M2 macrophages within MC38 tumor following treatment with 5-HTR2B antagonist. (L) Immuno-Histochemistry data of MC38 tumor tissue from control and 5-HTR2B antagonist treated mice showing expression of F4/80 (cyan), iNOS (blue), arginase 1 (green), and CD11c (red). Images are taken in […] and inset images are acquired in 600× magnification and DAPI (blue) is used as counterstain. All the images in the panel were taken at 200× magnification. The image in the inset was taken in 600× magnification. All the statistical analysis was performed using Student's ‘t’ test or two-way ANOVA using Sidak's multiple comparison test. *P<0.05; **P<0.01; […]; ****P<0.0001 Error bar represents mean±standard error of means (SEM).
FIG. 9 depicts the effect of5-HTR antagonists on the CTL response MC38 tumor model in mice: (A) Clinical data correlation study. A TIDE computational method was used to study the association between the tumor-infiltrating CD8 T cells (also known as cytotoxic T lymphocytes, CTL) level and overall subject survival in relation to the intratumoral 5-HTR2B gene expression level. […]
For orientation: In flow cytometry, cells or beads pass a laser one at a time.

A further series addresses 5-HTR2B receptor subtype (Homo sapiens, UniProt P41595). Particulars: more specific to 5-HTR2B; cited from earlier work.
For series [2] the following is noted: compared with other 5-HTR2B antagonists; cited from earlier work.
Where [3] appears, read: day 24, compared to control and SB-215505 treated tumor (FIG. 14).

Chain of 5-HTR2B receptor subtype (P41595 whole entry): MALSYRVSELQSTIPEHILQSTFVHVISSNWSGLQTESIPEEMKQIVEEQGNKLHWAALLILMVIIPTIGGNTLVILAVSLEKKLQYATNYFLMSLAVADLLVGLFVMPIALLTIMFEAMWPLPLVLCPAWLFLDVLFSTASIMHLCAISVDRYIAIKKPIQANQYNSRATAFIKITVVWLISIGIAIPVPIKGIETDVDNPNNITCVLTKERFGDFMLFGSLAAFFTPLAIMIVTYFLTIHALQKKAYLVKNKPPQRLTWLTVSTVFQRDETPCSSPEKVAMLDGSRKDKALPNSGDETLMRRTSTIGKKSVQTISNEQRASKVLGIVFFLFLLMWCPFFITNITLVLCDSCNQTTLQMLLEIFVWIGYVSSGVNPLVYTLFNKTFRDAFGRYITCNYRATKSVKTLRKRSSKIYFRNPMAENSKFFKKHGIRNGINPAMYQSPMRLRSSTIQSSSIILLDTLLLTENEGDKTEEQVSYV

Consider `CC(C)c1cc(-c2ccc(F)c3ccccc23)nc(N)n1` [RS-127445], for which, in the series with 4T1-Luc2 cells, the “tumor growth, combination with paclitaxel” value is on record as “much better response by reducing tumor growth than any of them alone”. The “total CD11c+ DCs in the TME” value in series [1] is “reducing the total CD11c^+ DCs”. Besides, in series [1] (setting [3]), the “percentage of PD-L1+ CD11c+ DCs in the tumor” value is “much reduced percentage”, the “percentage of PD-L1+ arginase1+ M2 macrophages in the tumor” value is listed as “much reduced percentage”, the “percentage of PD-L1+ total macrophages in the tumor” value is recorded as “much reduced percentage” and the “percentage of PD-L1+iNOS+ M1 macrophages in the tumor” value was “much reduced percentage”. Also, in series [1] (setting [3]), the “percentage of total CD11b+Gr1+ MDSCs in the tumor” value was “much reduced percentage”. Moreover, the “specificity to the 5-HTR2B receptor subtype” value at 5-HTR2B receptor subtype is around 1000 times. Besides, the bioavailability entry in series [2] is on record as “higher bioavailability”.
